Experimental data taken from patent US9884821B2, “N1-cyclic amine-N5-substituted biguanide derivatives, methods of preparing the same and pharmaceutical composition comprising the same” (IMMUNOMET THERAPEUTICS INC., priority 2013, dated 2018).
Where “and” joins values, the source holds several entries; their conditions need not be identical. Equal entries are not always repeated.

Columns and labels:
AMPK = AMPK activation effect (AMPK [pT172] ELISA) in MCF7 cells; type: cell-based, human; conditions: 24 hours; for AMPK activation effect (%) 10 μM / AMPK activation effect (%) 5 μM / AMPK activation effect (%) 50 μM: AMPKα Thr172 phosphorylation relative to untreated cells; for AC150: concentration at which AMPK activation reached 150%
Description: ELISA kit (Invitrogen, Catalog No. KH00651).
MCF7 cells were cultured in a DMEM medium supplemented with 10% fatal bovine serum (commercially available from Gibco Life Technologies (US)). Thereafter, the cultured MCF7 cells were put into a 6-well plate with approximately 5×10^5 cells per well, and cultured in an incubator supplied with 5% CO2. Culture media were treated with the derivatives synthesized in the Examples at concentrations of 5, 10 and 50 uM, and then cultured for 24 hours. […] Subsequently, the cells were lysed according to a method presented in the operation manual of the AMPK [pT172] ELISA kit, and 20 μg of a cell lysate was then yielded through protein assay. Thereafter, the AMPK activation effect was obtained by determining a degree of phosphorylation of a 172nd threonine residue (Thr172) of the AMPKα from the cell lysate according to the method presented in the operation manual of the AMPK [pT172] ELISA kit.

HCT116 cells = assay: Effect of inhibiting cancer cell proliferation (MTT) in HCT116 cells; type: cell-based, human; conditions: for GI50 / inhibition at 100 µM / inhibition at 25 µM: Homo sapiens, HCT-116, 48 h; for inhibition at 100 µM: read-out: Cell growth inhibition (%) at 100 μM; for inhibition at 25 µM: read-out: Cell growth inhibition (%) at 25 μM
From the text: HCT116 cells derived from human colorectal cancer were used, and an effect of inhibiting cancer cell proliferation of the biguanide derivative was confirmed by measuring a concentration value (cell growth inhibition concentration, GIC50) at which cell growth was inhibited by 50% using a 3-(4,5-dimethylthiazol-2-yl)-2,5-diphenyltetrazolium bromide (MTT) reagent.
First, HCT116 cells (purchased from the KCLB) were put on a 96-well plate and cultured in a DMEM medium supplemented with 10% fatal bovine serum (commercially available from Gibco Life Technologies (US)) for 16 hours so that approximately 5,000 cells were counted in each well. Subsequently, to obtain the GIC50 value of each compound, the culture media were treated with 100 μM, 25 μM, 6.25 μM, 1.56 μM or 0.39 μM of the compound, and then cultured for 48 hours. In order to determine whether the cells survived after treatment with the compounds, MTT (commercially available from AMRESCO (US)) was added to the culture media which were then cultured for another 3 hours. Formed formazane crystals were dissolved using dimethyl sulfoxide (DMSO) and the absorbance of the resulting solution was measured at 560 nm. After the 48-hour culture, a ratio of a living cell count on a well plate treated with the compounds synthesized in the Examples to a cell count cultured on a well plate not treated with the compound was indicated as cell viability (%) according to the concentration of each treated compound. The cell viability (%) was used to plot a cell viability curve graph and calculate a concentration (GIC50) value of the compound at which the growth was inhibited by 50%, thereby confirming the inhibition effect of cancer cell proliferation.

Cl.N=C(NC(=N)N1CC=CCC1)Nc1ccc(Cl)cc1 [Example 35, N1-1,2,3,6-tetrahydropyridine-N5-(4-chloro)phenyl biguanide hydrochloride]
AMPK activation effect (%) 10 μM (AMPK): 314%
AC150 (AMPK): 2.4 µM
GI50 (HCT116 cells): 18.4 µM
inhibition at 100 µM (HCT116 cells; 100 μM): 99.1%

CC1CCCC(C)N1C(=N)NC(=N)Nc1ccc(C(F)(F)F)cc1.Cl (centres unmarked) [Example 91, N1-(2,6-dimethyl)piperidine-N5-(4-trifluoromethyl)phenyl biguanide hydrochloride]
AMPK activation effect (%) 5 μM (AMPK): 108%
AMPK activation effect (%) 10 μM (AMPK): 214%
AC150 (AMPK): 5.6 µM
GI50 (HCT116 cells): 11.4 µM
inhibition at 25 µM (HCT116 cells): 100%

Cl.N=C(NCc1ccc(Cl)c(C(F)(F)F)c1)NC(=N)N1CC=CCC1 [Example 58, N1-1,2,3,6-tetrahydropyridine-N5-(4-chloro, 3-trifluoromethyl)benzyl biguanide hydrochloride]
AMPK activation effect (%) 10 μM (AMPK): 500%
AC150 (AMPK): 1.8 µM
GI50 (HCT116 cells): 7.9 µM
inhibition at 100 µM (HCT116 cells; 100 μM): 98.4%

CC1CCCN(C(=N)NC(=N)NCc2ccc(OC(F)(F)F)cc2)C1.Cl (centres unmarked) [Example 84, N1-(3-methyl)piperidine-N5-(4-trifluoromethoxy)benzyl biguanide hydrochloride]
AMPK activation effect (%) 5 μM (AMPK): 317%
AMPK activation effect (%) 10 μM (AMPK): 555%
AC150 (AMPK): 1.1 µM
GI50 (HCT116 cells): 10.4 µM
inhibition at 25 µM (HCT116 cells): 97%

Cl.N=C(N)NC(=N)N1CC=CCC1 [Example 61, N1-1,2,3,6-tetrahydropyridine biguanide hydrochloride]
AMPK activation effect (%) 10 μM (AMPK): 123%
AMPK activation effect (%) 50 μM (AMPK): 132%
AC150 (AMPK): >50 µM
GI50 (HCT116 cells): > 100 µM
inhibition at 100 µM (HCT116 cells; 100 μM): 10.5%

Cl.N=C(NCc1cccc(C(F)(F)F)c1)NC(=N)N1CC=CCC1 [Example 57, N1-1,2,3,6-tetrahydropyridine-N5-(3-trifluoromethyl)benzyl biguanide hydrochloride]
AMPK activation effect (%) 10 μM (AMPK): 279%
AMPK activation effect (%) 50 μM (AMPK): 579%
AC150 (AMPK): 2.7 µM
GI50 (HCT116 cells): 26.9 µM
inhibition at 100 µM (HCT116 cells; 100 μM): 97.8%

CN(C)C(=N)N=C(N)N [Metformin, reference compound]
AMPK activation effect (%) 50 μM (AMPK): 130% and 130 (at 50 μM) %
Cell growth inhibition (%) at 100 μM (HCT116 cells; 100 μM, 48 hours): 6.5 (at 100 μM ) %
GI50 (HCT116 cells): 2170 µM
inhibition at 100 µM (HCT116 cells; 100 μM): 6.5%

Cl.N=C(NC(=N)N1CC=CCC1)Nc1ccc(OC(F)(F)F)c(Cl)c1 [Example 11, N1-1,2,3,6-tetrahydropyridine-N5-(3-chloro,4-trifluoromethoxy) phenyl biguanide hydrochloride]
AMPK activation effect (%) 10 μM (AMPK): 637%
AC150 (AMPK): 1.4 µM
GI50 (HCT116 cells): 3 µM
inhibition at 100 µM (HCT116 cells; 100 μM): 98%

CC1CCCC(C)N1C(=N)NC(=N)Nc1ccc(F)c(C(F)(F)F)c1.Cl (centres unmarked) [Example 93, N1-(2,6-dimethyl)piperidine-N5-(4-fluoro, 3-trifluoromethyl)phenyl biguanide hydrochloride]
AMPK activation effect (%) 5 μM (AMPK): 190%
AMPK activation effect (%) 10 μM (AMPK): 422%
AC150 (AMPK): 2.0 µM
GI50 (HCT116 cells): 3 µM
inhibition at 25 µM (HCT116 cells): 100%

CC1CCCC(C)N1C(=N)NC(=N)Nc1cccc(C(F)(F)F)c1.Cl (centres unmarked) [Example 92, N1-(2,6-dimethyl)piperidine-N5-(3-trifluoromethyl)phenyl biguanide hydrochloride]
AMPK activation effect (%) 5 μM (AMPK): 324%
AMPK activation effect (%) 10 μM (AMPK): 417%
AC150 (AMPK): 0.8 µM
GI50 (HCT116 cells): 7.5 µM
inhibition at 25 µM (HCT116 cells): 100%

COc1cc(NC(=N)NC(=N)N2CC=CC2)cc(OC)c1.Cl [Example 45, N1-1,2-dihydropyrrole-N5-(3,5-dimethoxy)phenyl biguanide hydrochloride]
AMPK activation effect (%) 10 μM (AMPK): 202%
AMPK activation effect (%) 50 μM (AMPK): 299%
AC150 (AMPK): 4.8 µM
GI50 (HCT116 cells): 107 µM
inhibition at 100 µM (HCT116 cells; 100 μM): 47.2%

CC1CCCCN1C(=N)NC(=N)Nc1ccc(Cl)c(C(F)(F)F)c1.Cl (centres unmarked) [Example 80, N1-(2-methyl)piperidine-N5-(4-chloro, 3-trifluoromethyl)phenyl biguanide hydrochloride]
AMPK activation effect (%) 5 μM (AMPK): 334%
AMPK activation effect (%) 10 μM (AMPK): 590%
AC150 (AMPK): 1.1 µM
GI50 (HCT116 cells): 6.8 µM
inhibition at 25 µM (HCT116 cells): 99.7%

COc1ccc(NC(=N)NC(=N)N2CC=CC2)cc1.Cl [Example 42, N1-1,2-dihydropyrrole-N5-(4-methoxyl)phenyl biguanide hydrochloride]
AMPK activation effect (%) 10 μM (AMPK): 157%
AMPK activation effect (%) 50 μM (AMPK): 210%
AC150 (AMPK): 14.7 µM
GI50 (HCT116 cells): > 100 µM
inhibition at 100 µM (HCT116 cells; 100 μM): 14%

CC1CCCN(C(=N)NC(=N)Nc2ccc(C(F)(F)F)c(F)c2)C1.Cl (centres unmarked) [Example 70, N1-(3-methyl)piperidine-N5-(3-fluoro, 4-trifluoromethyl)phenyl biguanide hydrochloride]
AMPK activation effect (%) 5 μM (AMPK): 365%
AMPK activation effect (%) 10 μM (AMPK): 602%
AC150 (AMPK): 0.9 µM
GI50 (HCT116 cells): 3.9 µM
inhibition at 25 µM (HCT116 cells): 100%

CC1CCCN(C(=N)NC(=N)Nc2cccc(OC(F)(F)F)c2)C1.Cl (centres unmarked) [Example 83, N1-(3-methyl)piperidine-N5-(3-trifluoromethoxy)phenyl biguanide hydrochloride]
AMPK activation effect (%) 5 μM (AMPK): 352%
AMPK activation effect (%) 10 μM (AMPK): 398%
AC150 (AMPK): 0.5 µM
GI50 (HCT116 cells): 6.8 µM
inhibition at 25 µM (HCT116 cells): 100%

Cl.N=C(NC(=N)N1CC=CC1)Nc1ccc(F)c(C(F)(F)F)c1 [Example 46, N1-1,2-dihydropyrrole-N5-(4-fluoro, 3-trifluoromethyl)phenyl biguanide hydrochloride]
AMPK activation effect (%) 10 μM (AMPK): 448%
AC150 (AMPK): 1.6 µM
GI50 (HCT116 cells): 12 µM
inhibition at 100 µM (HCT116 cells; 100 μM): 100%

CC1CCCCN1C(=N)NC(=N)Nc1cccc(C(F)(F)F)c1.Cl (centres unmarked) [Example 79, N1-(2-methyl)piperidine-N5-(3-trifluoromethyl)phenyl biguanide hydrochloride]
AMPK activation effect (%) 5 μM (AMPK): 177%
AMPK activation effect (%) 10 μM (AMPK): 515%
AC150 (AMPK): 1.9 µM
GI50 (HCT116 cells): 9.4 µM
inhibition at 25 µM (HCT116 cells): 98.9%

CC1=CCN(C(=N)NC(=N)Nc2cccc(C(F)(F)F)c2)C1.Cl [Example 19, N1-(3-methyl)-1,2-dihydropyrrole-N5-(3-trifluoromethyl)phenyl biguanide hydrochloride]
AMPK activation effect (%) 10 μM (AMPK): 306%
AC150 (AMPK): 1.5 µM
GI50 (HCT116 cells): 9.1 µM
inhibition at 100 µM (HCT116 cells; 100 μM): 99.6%

Cc1cccc(NC(=N)NC(=N)N2CC=CC2)c1.Cl [Example 51, N1-1,2-dihydropyrrole-N5-(3-methyl)phenyl biguanide hydrochloride]
AMPK activation effect (%) 10 μM (AMPK): 241%
AMPK activation effect (%) 50 μM (AMPK): 409%
AC150 (AMPK): 3.1 µM
GI50 (HCT116 cells): 102 µM
inhibition at 100 µM (HCT116 cells; 100 μM): 48.7%

CC1=CCN(C(=N)NC(=N)Nc2ccc(OC(F)(F)F)cc2)C1.Cl [Example 15, N1-(3-methyl)-1,2-dihydropyrrole-N5-(4-trifluoromethoxy)phenyl biguanide hydrochloride]
AMPK activation effect (%) 10 μM (AMPK): 554%
AC150 (AMPK): 1.6 µM
GI50 (HCT116 cells): 10.1 µM
inhibition at 100 µM (HCT116 cells; 100 μM): 99.2%

Cl.N=C(NCc1cccc(OC(F)(F)F)c1)NC(=N)N1CC=CC1 [Example 14, N1-1,2-dihydropyrrole-N5-(3-trifluoromethoxy)benzyl biguanide hydrochloride]
AMPK activation effect (%) 10 μM (AMPK): 151%
AMPK activation effect (%) 50 μM (AMPK): 507%
AC150 (AMPK): 8.4 µM
GI50 (HCT116 cells): 17.5 µM
inhibition at 100 µM (HCT116 cells; 100 μM): 98.8%

Cl.N=C(NC(=N)N1CC=CCC1)Nc1ccc(F)cc1 [Example 37, N1-1,2,3,6-tetrahydropyridine-N5-(4-fluoro)phenyl biguanide hydrochloride]
AMPK activation effect (%) 10 μM (AMPK): 187%
AMPK activation effect (%) 50 μM (AMPK): 522%
AC150 (AMPK): 4.2 µM
GI50 (HCT116 cells): 135 µM
inhibition at 100 µM (HCT116 cells; 100 μM): 45.3%

Cl.N=C(NC(=N)N1CC=CCC1)Nc1cccc(C(F)(F)F)c1 [Example 31, N1-1,2,3,6-tetrahydropyridine-N5-(3-trifluoromethyl)phenyl biguanide hydrochloride]
AMPK activation effect (%) 10 μM (AMPK): 391%
AC150 (AMPK): 1.8 µM
GI50 (HCT116 cells): 7.8 µM
inhibition at 100 µM (HCT116 cells; 100 μM): 99.5%
